From patent publication US20100291086A1, “USE OF ESTROGEN AND ANDROGEN BINDING PROTEINS IN METHODS AND COMPOSITIONS FOR TREATING GYNAECOLOGICAL CANCERS” (priority 2007, published 2010)

Columns and labels:
[1] = women, same study; cited from earlier work
invasive breast cancer = details: women; cited from earlier work
breast cancer = details: adjuvant tamoxifen for about 5 years, women with cancers expressing the estrogen receptor; cited from earlier work
LNCaP cells = test: In vitro growth proliferation study, calcein uptake assay; format: cell-based, human; details: nilutamide 0.1 μM, 120 hours
Method: The effects of the polypeptide on the growth and proliferation of the cells was then assessed. […] In addition, LNCaP cells were also cultured in the presence of the non-steroidal antiandrogen nilutamide The human prostate cancer cell line, LNCaP was obtained from American Type Tissue Collection (ATCC) and was routinely cultured in growth medium containing phenol red RPMI 1640 (Invitrogen, Auckland, New Zealand) supplemented with 10% fetal bovine serum (FBS, GIBCO) and 1% antibiotic/antimycotic mixture (Invitrogen, Auckland, New Zealand). Cells were maintained at 37° C. in 5% CO2. […] In addition as control, 6 wells were treated with the nonsteroidal antiandrogen nilutamide (0.1 μM) as well as 6 wells with 10% charcoal stripped serum, to simulate steroid free conditions. After 120 hours in culture, cells were washed once with PBS and labelled with calcein ([…], Molecular Probes, Oregon, USA) at 1 mM final concentration in PBS. Calcein positive cells were detected using a FLUOstar OPTIMA plate reader (BMG Labtech, Victoria, Australia). Experiments were performed in 6 replicates for each treatment condition. Data are presented as mean±SEM unless otherwise indicated.

**Q.** What does the source list for `O=C(c1ccc(OCCN2CCCCC2)cc1)c1c(-c2ccc(O)cc2)sc2cc(O)ccc12` [Raloxifene]?
**A.** increase of risk of fatal stroke [1]: 49%; reduction of risk of invasive breast cancer (invasive breast cancer): 44%

**Q.** Which “reduction of annual breast cancer death rate” value (breast cancer) does the source give for `CC/C(=C(\c1ccccc1)c1ccc(OCCN(C)C)cc1)c1ccccc1` [tamoxifen] here?
**A.** The value was 31%.

**Q.** Which “reduction of prostate cancer cell proliferation” value (LNCaP cells) does the source give for `CC1(C)NC(=O)N(c2ccc([N+](=O)[O-])c(C(F)(F)F)c2)C1=O` [nilutamide] here?
**A.** The value was 80%.
